Assay results: PubChem BioAssay (NCI)
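Each compound was tested at five concentrations against cells in 96-well plates for 48 hours. TGI: total growth inhibition.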

How the values were obtained:
Assay in all cases: NCI anticancer screen, dose series, 48 h
786-0 renal = system: 786-0 renal
ACHN renal = system: ACHN renal
CCRF-CEM leukemia = system: CCRF-CEM leukemia
MCF7 breast = system: MCF7 breast
MOLT-4 leukemia = system: MOLT-4 leukemia
RXF 393 renal = system: RXF 393 renal
SK-MEL-2 melanoma = system: SK-MEL-2 melanoma
SNB-75 CNS = system: SNB-75 CNS
U251 CNS = system: U251 CNS
HT29 colon = system: HT29 colon
MALME-3M melanoma = system: MALME-3M melanoma

| SMILES | TGI (786-0 renal) | TGI (ACHN renal) | TGI (CCRF-CEM leukemia) | TGI (MCF7 breast) | TGI (MOLT-4 leukemia) | TGI (RXF 393 renal) | TGI (SK-MEL-2 melanoma) | TGI (SNB-75 CNS) | TGI (U251 CNS) | TGI (HT29 colon) | TGI (MALME-3M melanoma) |
| --- | --- | --- | --- | --- | --- | --- | --- | --- | --- | --- | --- |
| O=C1CSC2=NC3=C(COC/C3=C\c3ccc(F)cc3)C(c3ccc(F)cc3)N12 (stereo unspecified) | > 100 µM | > 100 µM | 74.5 µM | > 100 µM | > 100 µM | > 100 µM | > 100 µM | > 100 µM | > 100 µM |  |  |
| CC(=O)c1c2c(cc3c1CCC3)CCC2 | > 100 µM | > 100 µM | > 100 µM | > 100 µM | > 100 µM |  | > 100 µM | > 100 µM | > 100 µM | > 100 µM | > 100 µM |
| CN(C)/C=C/C(=O)c1cccc(C(=O)/C=C/N(C)C)n1 | > 100 µM | > 100 µM | > 100 µM |  | > 100 µM | > 100 µM | > 100 µM | > 100 µM | > 100 µM | > 100 µM | > 100 µM |
| CCOC(=O)CCN1C(=O)c2c(NC(=O)C(=O)O)cccc2S1(=O)=O | > 100 µM | > 100 µM | > 100 µM | > 100 µM | > 100 µM | > 100 µM | > 100 µM |  | > 100 µM | > 100 µM | > 100 µM |
| Fc1sc2c(c1F)C1CCC2C1 (stereo unspecified) | > 100 µM | > 100 µM |  | > 100 µM | 86.8 µM | > 100 µM | > 100 µM | > 100 µM | > 100 µM | > 100 µM | > 100 µM |
| CC1CN=C(N(C(=O)Nc2ccccc2)C2CCCCC2)S1 (stereo unspecified) | 31.4 µM | 26.3 µM | 53.7 µM | 31.8 µM | 38.8 µM |  | 29.5 µM | 28.9 µM | 30.8 µM | 32.9 µM | 32 µM |
| O=S1(=O)OCCOS(=O)(=O)C1S(=O)(=O)c1cccc2ccccc12 | > 100 µM | > 100 µM | > 100 µM | > 100 µM | > 100 µM |  | > 100 µM |  | > 100 µM | > 100 µM | > 100 µM |
| COC1OC(=O)C(OC)C(OC)C1OC (stereo unspecified) | > 100 µM | > 100 µM |  | > 100 µM | > 100 µM |  | > 100 µM | > 100 µM | > 100 µM | > 100 µM |  |
| Nc1nn2cc(-c3ccccc3)[n+](CC(=O)c3ccccc3)c2s1 | 40.2 µM | > 100 µM | 54.6 µM | 24.6 µM | 51.2 µM | 62.4 µM | 30.4 µM |  | 29.6 µM | > 100 µM | 27.3 µM |
| Oc1[nH]c2ccccc2c1N=NC(=S)NCc1ccccn1 | 13.6 µM | 2.25 µM |  | 14.1 µM | 4.9 µM |  | 28.7 µM | 6.6 µM | 6.22 µM | > 43 µM | 17.9 µM |
| Cc1nc(C)c(C(=O)NNC(=O)c2ccccc2)cc1C(=O)NNC(=O)c1ccccc1 | > 100 µM | > 100 µM | > 100 µM | > 100 µM | > 100 µM | > 100 µM | > 100 µM | > 10 µM | > 100 µM | > 100 µM |  |
| COc1ccc(C(OCC2OC(n3ccc(Oc4c(F)c(F)c(F)c(F)c4F)nc3=O)CC2OP(OCCC#N)N(C(C)C)C(C)C)(c2ccccc2)c2ccc(OC)cc2)cc1 (stereo unspecified) | > 100 µM | > 100 µM | > 100 µM | > 100 µM | > 100 µM | > 100 µM | > 100 µM | > 100 µM | > 100 µM | > 100 µM |  |
| CCOC(=O)C1=C(C)N(c2ccc(Cl)cc2)C2(O)C=CC(=O)C3C(=O)N(c4ccccc4)C(=O)C132 (stereo unspecified) | 3.09 µM | 3.07 µM |  | 4.06 µM | 3.72 µM | 3.31 µM | 3.53 µM | 3.25 µM | 5.39 µM | 3.18 µM | 3.57 µM |
| N#Cc1nc(-c2ccccn2)c(-c2ccccn2)nc1C#N | 6.28 µM | 7.95 µM | > 38.4 µM | 28 µM | > 30.6 µM | 15.9 µM | 10.6 µM | 22.9 µM | > 37.3 µM | 14.4 µM |  |
| Cc1nc2cccc(F)c2c(=O)n1-c1nnc(C2CC2)s1 | > 10 µM | > 10 µM | > 10 µM | > 10 µM | > 10 µM | > 10 µM | > 10 µM | > 10 µM | > 10 µM | > 10 µM |  |
| CN(C)CC(C)(C)C(=O)/C=C/c1ccccc1 | 29.9 µM | 33.3 µM | 23.2 µM |  | 60.4 µM | 24.5 µM |  | 37.7 µM | 30.5 µM | 33.9 µM | 24.1 µM |
| COC1OC2COC(c3ccccc3)OC2C(OC(=S)c2ccccc2)C1O (stereo unspecified) |  | > 100 µM | > 100 µM | > 100 µM | > 100 µM | 36.9 µM | > 100 µM |  | 26.2 µM | > 100 µM | > 100 µM |
| Cn1c(-c2cccs2)cc(-c2ccsc2)c1-c1ccsc1 | > 100 µM | > 100 µM | > 100 µM | > 100 µM | > 100 µM | > 100 µM |  | > 100 µM | > 100 µM | > 100 µM | > 100 µM |
| NC(=O)c1nnc2c(F)cccc2c1N | > 100 µM | > 100 µM | > 100 µM | > 100 µM | > 100 µM |  | > 100 µM | > 100 µM | > 100 µM | > 100 µM | > 100 µM |
| N#Cc1c(NC(=S)Nc2ccccc2)sc2c1CCCC2 | > 100 µM | > 100 µM |  | > 100 µM | > 100 µM | > 100 µM | > 100 µM | > 100 µM | > 100 µM | > 100 µM | > 100 µM |
| Cc1cnc2cc(Cl)ccc2c1SCC(=O)O | > 100 µM | > 100 µM | > 100 µM |  | > 100 µM | > 100 µM | > 100 µM |  | > 100 µM | > 100 µM | > 100 µM |
| Cc1cccc(-c2cc(=O)c3cc(C)cnc3[nH]2)c1 | > 100 µM | > 100 µM | 36.9 µM |  | > 100 µM | > 100 µM | > 100 µM | > 100 µM | > 100 µM |  | > 100 µM |
